# Assays:
# RAW264.7 cells [1] = assay: IL-1β production by peptidoglycan-stimulated RAW264.7 cells (ELISA); assay type: cell-based, mouse; settings: peptidoglycan 5 μg/ml, 24 hours; 25% NIW, 75% DIW; DH-DIW; NaClO 100 ppm
# Protocol: Next, the effects of NIW generated from 0.12% NaCl solution or water containing DH (dissolved hydrogen) on proinflammatory cytokine, IL-1β, production by the RAW264.7 cells in vitro was studied. Briefly, mouse RAW264.7 cells in 96-well tissue culture plates were stimulated with 5 μg/ml of peptidoglycan (Staphylococcus aureus origin, from Sigma) in NIW-based complete medium of α-MEM (25% NIW, 75% DIW) or DIW-based α-MEM (100% DIW). Hydrogen was dissolved in DIW for two days (DH-DIW) or NaClO (100 ppm) was additionally added to DIW. All media used in this assay were supplemented with FBS (10%). After 24 hours of incubation, culture supernatants were collected from the 96-well plates and diluted in an equal volume of PBS containing 0.05% Tween 20 detergent (PBST). A commercially available ELISA kit for IL-1β was employed to measure the concentration of IL-1β in the culture supernatants.
# RAW264.7 cells [2] = assay: Intracellular ROS induced by LPS in RAW264.7 cells (C400 fluorescence, confocal microscopy); assay type: cell-based, mouse; settings: 24 hours
# Protocol: More specifically, RAW264.7 cells were incubated in 10% FBS containing α-MEM dissolved in a) 0.12% NaCl, b) 0.12% NaCl+85 ppm NaClO, or c) NIW. The cells were incubated in the presence or absence of E. coli LPS (1 μg/ml) for 24 hours. The cells were stained with Fluorescein-derivative ROS reacting reagent, 5-(and 6)-carboxy-2′,7′-dichlorodihydrofluorescein diacetate (#C400, Molecular Probes). The C400 only reacts with ROS and develops fluorescence emission at a wavelength range of 517-527 nm. The staining pattern was analyzed by 0.3 μm sequential optical sectioning at ×400 or ×1000 magnification with a Leica™ TCS/SP-2 laser scan confocal microscope.
compound,measurement,setting,value
"OCl [sodium hypochlorite (NaClO) water, sodium hypochlorite]",IL-1β production,RAW264.7 cells [1],augmented the mitogenic activity of the peptidoglycan
same,LPS-dependent intracellular ROS induction,RAW264.7 cells [2]; E. coli LPS 1 μg/ml,LPS treatment induced intracellular ROS
same,intracellular ROS in the absence of LPS,RAW264.7 cells [2]; no LPS,did not show intracellular ROS
